Here are results for 8 compounds from the NIST ThermoML archive (doi:10.1021/acs.jced.5b00592).

Numbers after ± are expanded uncertainties.

For this series the following is noted: 101.33 kPa, Liquid, Vibrating tube method.

As usually defined, the mass density is mass per unit of volume.

Take `CC(=O)[O-].C[NH2+]CCO` [N-methyl-2-hydroxyethylammonium acetate]: the mass density by setting is: (293.15 K) 1099.6 ± 1.1 kg/m3; (303.15 K) 1093 ± 1 kg/m3; (313.15 K) 1086.4 ± 1 kg/m3; (323.15 K) 1079.7 ± 1 kg/m3; (333.15 K) 1072.9 ± 1 kg/m3; (343.15 K) 1066.1 ± 1 kg/m3. Moreover, under “353.15 K”, the mass density is on record as 1059.1 ± 1 kg/m3.
Take `CCCC[n+]1ccccc1.O=S(=O)([N-]S(=O)(=O)C(F)(F)F)C(F)(F)F` [1-butylpyridinium bis[(trifluoromethyl)sulfonyl]imide]: the mass density stood at 1457.74 ± 1.9 kg/m3 (288.15 K); 1452.97 ± 1.9 kg/m3 (293.15 K); 1448.23 ± 1.9 kg/m3 (298.15 K); 1443.6 ± 1.9 kg/m3 (303.15 K); 1438.91 ± 1.9 kg/m3 (308.15 K); 1434.25 ± 1.9 kg/m3 (313.15 K). Besides, the mass density (318.15 K) was 1429.62 ± 1.9 kg/m3; the mass density (323.15 K) amounted to 1425 ± 1.9 kg/m3; the mass density (328.15 K) is reported as 1420.41 ± 1.8 kg/m3; the mass density (333.15 K) stood at 1415.82 ± 1.8 kg/m3; the mass density (338.15 K) is 1411.23 ± 1.8 kg/m3; the mass density (343.15 K) worked out at 1406.74 ± 1.8 kg/m3. Besides, the mass density by setting is: (348.15 K) 1402.15 ± 1.8 kg/m3; (353.15 K) 1397.61 ± 1.8 kg/m3.
`CCCCCCCCn1cc[n+](C)c1.O=S(=O)([N-]S(=O)(=O)C(F)(F)F)C(F)(F)F`: the mass density is recorded as 1329.44 ± 0.54 kg/m3 (288.15 K); 1324.99 ± 0.54 kg/m3 (293.15 K); 1320.54 ± 0.53 kg/m3 (298.15 K); 1316.08 ± 0.53 kg/m3 (303.15 K); 1311.64 ± 0.53 kg/m3 (308.15 K); 1307.23 ± 0.52 kg/m3 (313.15 K). Also, the mass density is given as 1302.82 ± 0.52 kg/m3 (318.15 K); 1298.45 ± 0.52 kg/m3 (323.15 K); 1294.08 ± 0.51 kg/m3 (328.15 K); 1289.73 ± 0.51 kg/m3 (333.15 K); 1285.38 ± 0.51 kg/m3 (338.15 K); 1281.05 ± 0.5 kg/m3 (343.15 K). The mass density (348.15 K) came out at 1276.72 ± 0.5 kg/m3 and the mass density (353.15 K) amounted to 1272.41 ± 0.5 kg/m3.
In the case of `CCCCCCCCn1cc[n+](C)c1.O=S(=O)([O-])C(F)(F)F` [1-octyl-3-methylimidazolium trifluoromethanesulfonate], the mass density was 1200.83 ± 0.44 kg/m3 (288.15 K); 1197.12 ± 0.44 kg/m3 (293.15 K); 1193.39 ± 0.43 kg/m3 (298.15 K); 1189.64 ± 0.43 kg/m3 (303.15 K); 1185.9 ± 0.43 kg/m3 (308.15 K); 1182.17 ± 0.43 kg/m3 (313.15 K). For the same compound, the mass density runs as follows: (318.15 K) 1178.44 ± 0.42 kg/m3; (323.15 K) 1174.72 ± 0.42 kg/m3; (328.15 K) 1171.02 ± 0.42 kg/m3; (333.15 K) 1167.34 ± 0.42 kg/m3; (338.15 K) 1163.66 ± 0.41 kg/m3; (343.15 K) 1159.99 ± 0.41 kg/m3. For the same compound, the mass density was found to be 1156.33 ± 0.41 kg/m3 (348.15 K) and 1152.68 ± 0.41 kg/m3 (353.15 K).
`CCCCCCCCCCCCn1cc[n+](C)c1.O=S(=O)([N-]S(=O)(=O)C(F)(F)F)C(F)(F)F`: the mass density by setting is: (288.15 K) 1238.73 ± 1.4 kg/m3; (293.15 K) 1234.45 ± 1.4 kg/m3; (298.15 K) 1230.2 ± 1.4 kg/m3; (303.15 K) 1225.93 ± 1.3 kg/m3; (308.15 K) 1221.7 ± 1.3 kg/m3; (313.15 K) 1217.48 ± 1.3 kg/m3. In addition, the mass density runs as follows: (318.15 K) 1213.28 ± 1.3 kg/m3; (323.15 K) 1209.09 ± 1.3 kg/m3; (328.15 K) 1204.95 ± 1.3 kg/m3; (333.15 K) 1200.8 ± 1.3 kg/m3; (338.15 K) 1196.67 ± 1.3 kg/m3; (343.15 K) 1192.54 ± 1.3 kg/m3. Besides, the mass density reads like this: (348.15 K) 1188.43 ± 1.3 kg/m3; (353.15 K) 1184.33 ± 1.2 kg/m3.
Turning to `CCCC(=O)[O-].C[NH2+]CCO` [N-methyl-2-hydroxyethylammonium butanoate], the mass density (293.15 K) was 1038.03 ± 0.93 kg/m3; the mass density (303.15 K) amounted to 1031.04 ± 0.91 kg/m3; the mass density (313.15 K) stood at 1024.03 ± 0.9 kg/m3; the mass density (323.15 K) turned out to be 1016.9 ± 0.88 kg/m3; the mass density (333.15 K) is 1009.68 ± 0.87 kg/m3; the mass density (343.15 K) was 1002.38 ± 0.86 kg/m3. The mass density (353.15 K) was found to be 994.97 ± 0.84 kg/m3.
In the case of `CCCC[n+]1ccn(C)c1.O=S(=O)([N-]S(=O)(=O)C(F)(F)F)C(F)(F)F`, the mass density came out at 1443.95 ± 4 kg/m3 (288.15 K); 1439.13 ± 4 kg/m3 (293.15 K); 1434.32 ± 4 kg/m3 (298.15 K); 1429.51 ± 4 kg/m3 (303.15 K); 1424.73 ± 4 kg/m3 (308.15 K); 1419.98 ± 4 kg/m3 (313.15 K). Moreover, the mass density (318.15 K) was determined as 1415.23 ± 4 kg/m3; the mass density (323.15 K) is listed as 1410.5 ± 4 kg/m3; the mass density (328.15 K) came to 1405.78 ± 4 kg/m3; the mass density (333.15 K) was determined as 1401.09 ± 4 kg/m3; the mass density (338.15 K) stood at 1396.41 ± 4 kg/m3; the mass density (343.15 K) stood at 1391.74 ± 4 kg/m3. For the same compound, the mass density was 1387.07 ± 4 kg/m3 (348.15 K) and 1382.43 ± 4 kg/m3 (353.15 K).
In the case of `CCC(=O)[O-].C[NH2+]CCO` [2-hydroxy-N-methylethanaminium propionate], the mass density was 1068.13 ± 0.99 kg/m3 (293.15 K); 1061.16 ± 0.97 kg/m3 (303.15 K); 1054.19 ± 0.96 kg/m3 (313.15 K); 1047.12 ± 0.94 kg/m3 (323.15 K); 1039.96 ± 0.93 kg/m3 (333.15 K); 1032.71 ± 0.92 kg/m3 (343.15 K). The mass density (353.15 K) worked out at 1025.34 ± 0.9 kg/m3.
